In PMC9741287, “Cytotoxic and Luminescent Properties of Novel Organotin Complexes with Chelating Antioxidant Ligand” (Molecules, 2022):

Key:
[1] = test system: formation of advanced glycation end products (AGEs); experiment: Antiglycation activity (BSA-glucose, AGE fluorescence); format: biochemical; settings: for Antiglycation activity, M ± SEM: 24 h at 60 °C
Description: The glycation reaction was carried out in a phosphate buffer solution of 0.05 M, pH 7.4. Composition of the reaction medium: 0.36 M glucose solution and 1 mg/mL BSA (fraction V). The test compounds were dissolved in 99% DMSO (final concentration in the reaction medium ~3%). The activity of compound 1 was studied in the concentration range of 1000–0.1 μM, and the activity of aminoguanidine was determined at concentrations of 10,000–1000 μM. Control samples contained an equivalent volume of solvent. The samples were incubated for 24 h at 60 °C.
Data registration was carried out by the spectrofluorimetric method, determining AGE by specific fluorescence at excitation/emission wavelengths of 370/440 nm (spectrofluorimeter M 200 PRO, TECAN Austria GmbH, Grödig, Austria).
In order to exclude false positive results for compounds suppressing AGE fluorescence due to interference, the obtained data were logarithmically normalized according to Equation (4):Fly(log) = 10^(log10(Exp)−log10(Blank)) − 1(4) where Fly(log) is the normalized AGE fluorescence intensity, log10(Exp) and log10(blank) are the decimal logarithms of the actual fluorescence levels of glycated and corresponding non-glycated samples (both containing the test compound and controls).
The activity of other compounds (both non-fluorescent and fluorescent at the wavelengths used) was expressed by the Equation (5):Fly(lin) = Exp − Blank(5) where Fly(lin) is the fluorescence intensity of AGEs, Exp and blank are the actual fluorescence levels of glycated and corresponding non-glycated samples (both those containing the test compound and controls).
Determination of activity expressed as % suppression of fluorescence of AGE, was made according to the Equation (6):% = 100 − (Fly(Exp) × 100/Fly(Contr))(6) where Fly(Exp) and Fly(Contr) are the CPG fluorescence intensity of experimental and control samples, respectively (log-normalized or non-log-normalized).

Structure (SMILES): CC(C)(C)c1cc(C(=O)N/N=C/c2ccccc2O)cc(C(C)(C)C)c1O [Compound 1, Di-tert-butyl-4-hydroxy-N′-(2-hydroxybenzylidene)-benzohydrazine]
- IC50 [1]: 2800 nM
- Antiglycation activity, M ± SEM ([1]; concentration 0.3 µM): −1.9 ± 1.4%
- Antiglycation activity, M ± SEM ([1]; concentration 1 µM): 0.6 ± 2.3%
- Antiglycation activity, M ± SEM ([1]; concentration 3 µM): 53.9 ± 2.5%
- Antiglycation activity, M ± SEM ([1]; concentration 10 µM): 60.1 ± 1.1%
- Antiglycation activity, M ± SEM ([1]; concentration 30 µM): 62.0 ± 0.7%
- Antiglycation activity, M ± SEM ([1]; concentration 100 µM): 61.6 ± 0.5%
- Antiglycation activity, M ± SEM ([1]; concentration 300 µM): 73.2 ± 1.9%
- Antiglycation activity, M ± SEM ([1]; concentration 1000 µM): 70.2 ± 8.0%
- melting point: 265 to 269 °C
